This is an account of results in paper PMC6430500, “3-Fluoro-4-hydroxyprolines: Synthesis, Conformational Analysis, and Stereoselective Recognition by the VHL E3 Ubiquitin Ligase for Targeted Protein Degradation” (Journal of the American Chemical Society, 2018).

Molecules are shown by their SMILES. Like-named read-outs stand apart in the source and are kept apart here.

The test system of one test is A549 cells. The test is described as follows: A549 colony-formation assay. Conditions: 7 days, crystal violet. It is filed as cell-based. Here is the method:
A549 Colony-Formation Assay
A549 cells were seeded in clear, Nunc™ Edge 2.0 96 -w ell plates (Thermo Scientific) at 1000 cells per well and incubated at 37°C in DMEM. After 24 h cells were treated with test compounds from 10 µM to 100 nM , with a final DM SO of 0.1%. The cells were left to grow until DM SO -treated wells reached ~100% confluence (~8 days), at which point they were washed with PBS, fixed with 100% MeOH (30 min 4°C), stained with 0.1% crystal violet (30 min at r.t.) and left to dry overnight. Once dried plates were imaged on an Epson Perfection V800 scanner, at a resolution of 1200 DPI and in 48 -bit colour.
For dose-response curves, crystal-violet dye was extracted by the addition of 200 µl 1% SDS to each well, and incubation for 3 h at r.t. The absorbance at 595nm of each well was measured on a Pherastar FS (BMG), normalised for each compound and plotted against compound concentration.
(1 picture or pasted object on this page, not shown here)

A further test concerns MV4;11 cells. The test is described as follows: CellTiter-Glo cell viability assay. Conditions: for EC50: MV4-11, 72 h. It is filed as cell-based. On the procedure: MV4;11 cells (15000 cells per well) were dosed for 72 h with compounds serially diluted (1:3) on a clear-bottom 384-well plate with a final concentration of 0.05% (v/v) DMSO. After treatment, Promega CellTiter-Glo luminescent cell viability assay (G7572) was added to the cells according to the manufacturer instructions. The signal from each well was recorded on a BM G Labtech Pherastar luminescence plate reader with recommended settings.
Normalized data were analyzed and plotted with Graphpad Prism software in the ‘log(inhibitor) vs. response -- Variable slope (four parameters)’ module. EC50 values of each test compound were […]
(Cellular ATP, detected with luciferase, serves as a proxy for viable cell number.)

The next test has as its target T1, VBC (Homo sapiens, UniProt P40337).
T1 construct: VHL (54–213), ElonginC (17–112) and; His6 (N, cleaved yes); made in house; host or cells: Escherichia coli BL21(DE3)
The test is described as follows: ITC of PROTACs, binary complex PROTAC–VBC. To be noted: for ΔG / ΔH / –TΔS / Kd: PROTAC in cell, VBC in syringe; for Kd: mean ± SEM. It is filed as binding. From the text: (§1) structure (C2 R, C3 S, C4 R) assumed on the basis of unchanging stereogenic centres in the synthesis.
(§2) Final R(F) = 0.033, wR(F 2) = 0.085 for 275 parameters and 3901 reflections with I > 2σ(I) (corresponding R-values based on all 4067 reflections = 0.035 and 0.086, respectively), CCDC […]
(§3) Protein expression and purification.
(§4) Wild-type versions of human proteins VHL (UniProt accession number: P40337), ElonginC […]
(§5) expression. For expression of VBC, N-terminally His6-tagged VHL (54–213), ElonginC (17–112) and ElonginB (1–104) were co- expressed in Escherichia coli BL21(DE3) at 24 °C for 16 h using 0.3 mM isopropyl β-D -1-thiogalactopyranoside (IPTG). E. coli cells were lysed using a pressure cell homogenizer (Stansted Fluid Power) and lysate clarified by centrifugation. His6-tagged VCB was purified on a HisTrap FF affinity column (GE Healthcare) by elution with an imidazole gradient. The His6tag was removed using TEV protease and the untagged complex dialyzed into low -concentration imidazole buffer. VCB was then flowed through the HisTrap FF column a second time, allowing impurities to bind, as the complex eluted without binding. VCB was then additionally purified by anion exchange and size-exclusion chromatography using ResourceQ and Superdex-75 columns (GE Healthcare), respectively. The final purified complex was stored in 20 mM Bis–Tris, pH 7, 150 mM sodium chloride and 1 mM dithiothreitol (DTT). Brd2BD1 (71–194), and Brd4BD2 (333–460) were expressed with an N-terminal His6 tag in E. coli BL21(DE3) at 18 °C for 20 h using 0.2 mM IPTG.
(§6) His6-tagged BDs were purified on nickel Sepharose 6 fast flow beads (GE Healthcare) by elution with increasing concentrations of imidazole. For crystallography the His6-tagged BD was cleaved with TEV protease and dialyzed into low-concentration imidazole buffer. The BD was then flowed over the nickel beads a second time to remove impurities and protease. BDs were then additionally purified by size-exclusion chromatography using a Superdex-75 column. The BDs were purified by size-exclusion chromatography using a Superdex-75 column. The final purified proteins were stored in 20 mM 4-(2-hydroxyethyl)-1-piperazineethanesulfonic acid (HEPES), pH 7.5, 150 mM sodium chloride and 1 mM DTT. All chromatography purification steps were performed using Äkta FPLC purification systems (GE Healthcare) or glass econo-columns (Bio-Rad) at room temperature.
(§7) Isothermal titration calorimetry (ITC) of peptides and ligands
(§8) Titrations were performed on an ITC200 micro-calorimeter (GE Healthcare). The peptides were dissolved in buffer (20 mM Bis–Tris propane, 100 mM NaCl, 1 mM tris(2-carboxyethyl)phosphine […]
(§9) (TCEP), pH 7.4) at 100 µM. The compounds were titrated against 10 µM VBC complex, equilibrated in the same buffer. The titrations consisted of 20 injections of 2 µL of peptide solution at a rate of 0.5 µL/s at 120 s time intervals. An initial injection of ligand (0.4 µL) was made and discarded during data analysis. All experiments were performed at 25°C while stirring at 650 rpm.
(§10) Ligands 14a- b were diluted from DMSO stock solution to 300 µM in buffer (20 mM Bis-Tris propane, 150 mM NaCl, 1 mM TCEP, pH 7.4). The compounds were titrated against 30 µM VBC complex, equilibrated in the same buffer. The final concentration of DMSO in each experiment was […]
(§11) The data were fitted to a single-binding-site model using the MicroCal PEAQ-ITC analysis software provided by the manufacturer to obtain the stoichiometry n, the dissociation constant K d, and the enthalpy of binding ΔH . The reported values are the mean ± s.e.m. from independent measurements.
(§12) Isothermal titration calorimetry (ITC)of PROTACs
(§13) The titrations were all performed as reverse mode (protein in syringe, ligand in cell) and consisted of 19 injections of 2 µl protein solution (20 mM Bis–Tris propane, 100 mM NaCl, 1 mM tris(2-carboxyethyl)phosphine (TCEP), pH 7.4) at a rate of 0.5 µl/s at 120 s time intervals. An initial injection (0.4 µl) was made and discarded during data analysis. […]

Another test addresses T2, Brd2BD1 (Homo sapiens, UniProt P25440).
T2 construct: Brd2BD1 (71–194),; made in house; host or cells: E. coli BL21(DE3)
The test is described as follows: ITC of PROTACs, binary titration with Brd2BD1. Format: binding. To be noted: PROTAC in cell, Brd2BD1 in syringe.
Excerpt: as §1, §2, §3, §4, §5, §6, §7, §8, §9, §10, §11, §12, §13

T2 sequence (P25440 71-194): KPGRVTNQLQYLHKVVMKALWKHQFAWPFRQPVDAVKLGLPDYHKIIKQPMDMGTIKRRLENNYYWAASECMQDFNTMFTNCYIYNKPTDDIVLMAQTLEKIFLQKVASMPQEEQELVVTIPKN
T1 sequence (P40337 54-213): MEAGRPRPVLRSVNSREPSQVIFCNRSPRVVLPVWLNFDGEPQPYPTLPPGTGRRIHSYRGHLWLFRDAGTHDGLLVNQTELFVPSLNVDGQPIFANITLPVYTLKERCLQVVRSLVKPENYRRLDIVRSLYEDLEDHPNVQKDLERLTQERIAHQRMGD
T1 sequence (Q15369 17-112 partner limits assumed): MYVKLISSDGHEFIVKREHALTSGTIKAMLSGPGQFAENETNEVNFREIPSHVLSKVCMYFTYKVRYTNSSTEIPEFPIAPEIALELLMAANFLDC
T1 sequence (Q15370 1-104 partner limits assumed): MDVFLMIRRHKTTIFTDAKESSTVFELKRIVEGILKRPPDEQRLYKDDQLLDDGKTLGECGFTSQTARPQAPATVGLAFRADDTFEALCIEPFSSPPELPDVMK

Usually Kd stands for the constant that tells how readily two partners part at equilibrium. Higher therefore signals lower affinity. With `Cc1ncsc1-c1ccc(CNC(=O)[C@@H]2[C@@H](F)[C@@H](O)CN2C(=O)[C@@H](NC(=O)COCCOCCOCCNC(=O)C[C@@H]2N=C(c3ccc(Cl)cc3)c3c(sc(C)c3C)-n3c(C)nnc32)C(C)(C)C)cc1` [15a], the “effect on cell growth, colony formation (in words)” value with A549 cells is “profound concentration-dependent cytotoxicity”. In addition, in the test with MV4;11 cells (72 h), the “pEC50, antiproliferative activity” value is 6.5. Besides, the Emax in the test with MV4;11 cells (Homo sapiens, 72 h, read-out: Emax, maximal response at highest concentration) worked out at 92%. Also, the EC50 in the test on MV4;11 cells (Homo sapiens, read-out: EC50, antiproliferative activity) came out at 330 nM. The EC50 in the test on MV4;11 cells (Homo sapiens, read-out: pEC50, antiproliferative activity (converted)) was 330 nM. Further, at VBC, the ΔG is listed as -9.01 ± 0.02 kcal/mol, the ΔH was -7.9 ± 0.3 kcal/mol, the “–TΔS” value is on record as -1.1 ± 0.2 kcal/mol and the Kd was found to be 249 ± 6 nM. On Brd2BD1, binding was put at a Kd of 97 ± 0.6 nM, the ΔG is -9.57 ± 0.01 kcal/mol, the ΔH is on record as -13.7 ± 0.3 kcal/mol and the “–TΔS” value is reported as 4.2 ± 0.3 kcal/mol.

On to `Cc1ncsc1-c1ccc(CNC(=O)[C@@H]2[C@H](F)[C@@H](O)CN2C(=O)[C@@H](NC(=O)COCCOCCOCCNC(=O)C[C@@H]2N=C(c3ccc(Cl)cc3)c3c(sc(C)c3C)-n3c(C)nnc32)C(C)(C)C)cc1` [15b], for which the “effect on cell growth, colony formation (in words)” value in the test on A549 cells is listed as “affected cell growth only modestly”. Further, the “antiproliferative effect (in words)” value in the test on MV4;11 cells (72 h, compared to MZ1 or 15a) is “much weaker antiproliferative effect”. The “fold weaker ligand for VBC” value at VBC (15b compared to 15a) is given as 2.5 fold. Moreover, at VBC, the ΔG is -8.49 ± 0.07 kcal/mol, the ΔH was -5.0 ± 0.2 kcal/mol, the “–TΔS” value was -3.7 ± 0.2 kcal/mol and binding was characterised by a dissociation constant (Kd) of 603 ± 74 nM. Further, on Brd2BD1, the Kd was 111 ± 6 nM, the ΔG is listed as -9.49 ± 0.03 kcal/mol, the ΔH is given as -14.1 ± 0.6 kcal/mol and the “–TΔS” value is 4.9 ± 0.6 kcal/mol.
